Activity calls are given as the source filed them. The rule behind the calls is not given here.

In series [1] the target is T1, Sphingosine kinase 1 (Homo sapiens, UniProt Q9NYA1). The series can be described thus: Inhibition of recombinant His6x-tagged human SphK1 expressed in HEK293 cells assessed as reduction in S1P formation using D-erythro-sphingosine as substrate by […]. For orientation: A western blot detects proteins with antibodies after separation by electrophoresis.

Series [2] in a line: Effect on hematopoiesis in sub-lethal irradiated C57BL/6J mouse xenografted with […] MLL-AF9 cells assessed as CD45.1+/CD34 cells in bone marrow at 2.5 mg/kg measured after 6 weeks by flow cytometry analysis (reference value: 93 %). Type of series: ADME, organism-based. As to conditions: in vivo, 1008 h.
Series [3] addresses Cyclin-dependent kinase 1 (Homo sapiens) (UniProt P06493). The series can be described thus: Activation of CDK1 in human HL-60 cells assessed as induction of Bcl2 phosphorylation at Ser70 residue at 300 nM after 24 hrs in presence of Ro-3306 by Western blot analysis. Type of series: cell-based.
Series [4] has as its target T2, Sphingosine kinase 2 (Homo sapiens) (UniProt Q9NRA0).
T2 sequence (whole entry): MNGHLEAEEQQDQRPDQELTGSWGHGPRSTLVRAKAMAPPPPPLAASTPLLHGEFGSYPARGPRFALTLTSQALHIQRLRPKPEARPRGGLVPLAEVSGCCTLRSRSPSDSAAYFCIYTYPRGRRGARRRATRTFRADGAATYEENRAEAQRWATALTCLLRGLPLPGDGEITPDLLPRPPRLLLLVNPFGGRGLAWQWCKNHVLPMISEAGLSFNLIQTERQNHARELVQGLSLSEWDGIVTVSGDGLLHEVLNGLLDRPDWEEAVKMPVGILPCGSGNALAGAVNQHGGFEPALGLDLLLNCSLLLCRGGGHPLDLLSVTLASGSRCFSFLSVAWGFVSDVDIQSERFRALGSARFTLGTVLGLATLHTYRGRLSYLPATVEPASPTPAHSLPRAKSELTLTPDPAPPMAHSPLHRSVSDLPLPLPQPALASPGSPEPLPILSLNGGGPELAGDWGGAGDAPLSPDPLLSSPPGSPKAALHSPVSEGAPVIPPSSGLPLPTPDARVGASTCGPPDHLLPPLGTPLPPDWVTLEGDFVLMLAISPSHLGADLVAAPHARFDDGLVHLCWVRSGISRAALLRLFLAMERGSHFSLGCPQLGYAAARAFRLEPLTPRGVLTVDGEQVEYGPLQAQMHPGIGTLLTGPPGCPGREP
In words: Binding affinity to SphK2 in HEK293 cells assessed as induction of thermal stabilization at 1 uM and 48.8 to 68.2 degreeC by CETSA-based Western blot analysis. The format is cell-based.

The target of series [5] is Tyrosine-protein kinase JAK1 (Homo sapiens) (UniProt P23458). In words: Inhibition of wild-type human partial length JAK1 JH2 pseudokinase domain (R537 to D855 residues) expressed in mammalian expression system assessed as residual activity at 1 uM by Kinomescan method relative to control.
Tyrosine-protein kinase JAK1 (Homo sapiens), sequence (P23458 whole entry, the tested form may be a part): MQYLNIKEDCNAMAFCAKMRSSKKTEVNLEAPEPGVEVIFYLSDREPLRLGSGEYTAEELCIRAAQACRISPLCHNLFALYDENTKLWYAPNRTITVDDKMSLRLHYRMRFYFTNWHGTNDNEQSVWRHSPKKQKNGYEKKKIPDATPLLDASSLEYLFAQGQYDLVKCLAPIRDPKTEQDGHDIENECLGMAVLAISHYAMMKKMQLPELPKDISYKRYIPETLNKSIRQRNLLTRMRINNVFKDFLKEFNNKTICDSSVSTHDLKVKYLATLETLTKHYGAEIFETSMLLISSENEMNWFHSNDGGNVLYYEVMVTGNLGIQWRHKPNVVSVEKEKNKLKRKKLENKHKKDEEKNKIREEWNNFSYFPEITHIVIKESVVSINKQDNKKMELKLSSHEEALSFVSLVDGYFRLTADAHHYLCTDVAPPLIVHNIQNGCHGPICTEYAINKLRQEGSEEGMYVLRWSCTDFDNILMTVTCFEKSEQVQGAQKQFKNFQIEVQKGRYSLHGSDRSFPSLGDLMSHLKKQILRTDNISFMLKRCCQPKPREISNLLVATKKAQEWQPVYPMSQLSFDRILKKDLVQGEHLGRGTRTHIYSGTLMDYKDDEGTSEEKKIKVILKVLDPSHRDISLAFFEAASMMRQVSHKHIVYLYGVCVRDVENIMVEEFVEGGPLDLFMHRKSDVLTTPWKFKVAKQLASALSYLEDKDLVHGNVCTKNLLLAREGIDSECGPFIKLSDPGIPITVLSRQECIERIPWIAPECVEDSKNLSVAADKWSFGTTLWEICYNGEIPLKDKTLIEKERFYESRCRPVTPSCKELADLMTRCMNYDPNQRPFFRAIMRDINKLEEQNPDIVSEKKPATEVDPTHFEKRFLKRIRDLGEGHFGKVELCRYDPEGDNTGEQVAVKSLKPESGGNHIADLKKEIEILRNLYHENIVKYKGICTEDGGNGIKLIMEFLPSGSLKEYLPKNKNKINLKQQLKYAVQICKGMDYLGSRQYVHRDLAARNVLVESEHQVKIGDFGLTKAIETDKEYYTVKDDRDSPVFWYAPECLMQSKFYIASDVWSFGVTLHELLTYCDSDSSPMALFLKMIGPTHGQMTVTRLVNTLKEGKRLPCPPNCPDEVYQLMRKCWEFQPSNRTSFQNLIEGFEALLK
The target of series [6] is T3, Sphingosine kinase 1/2 (Homo sapiens) (UniProt Q9NRA0+Q9NYA1). In words: Inhibition of SPHK1/SPHK2 in human HL-60 cells assessed as C16:0 ceramide level assessed per 10^6 cells at 500 nM after 24 hrs by LC-ESI/MS analysis (reference value: 33.5 +/- 4.1 pmol). The format is cell-based.
T3 sequence (Q9NYA1 whole entry, looked up, one chain of several): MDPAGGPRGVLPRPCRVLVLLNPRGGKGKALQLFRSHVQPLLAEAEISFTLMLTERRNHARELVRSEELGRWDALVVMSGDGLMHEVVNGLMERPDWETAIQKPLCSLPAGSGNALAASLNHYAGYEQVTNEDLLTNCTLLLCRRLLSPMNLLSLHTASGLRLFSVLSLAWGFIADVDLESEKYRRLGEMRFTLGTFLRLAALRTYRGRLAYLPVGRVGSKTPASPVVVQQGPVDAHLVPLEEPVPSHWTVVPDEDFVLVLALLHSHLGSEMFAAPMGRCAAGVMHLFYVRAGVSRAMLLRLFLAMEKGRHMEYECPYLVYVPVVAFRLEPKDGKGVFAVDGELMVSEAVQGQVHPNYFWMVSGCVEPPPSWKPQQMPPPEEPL
Series [7] in a line: Toxicity in sub-lethal irradiated C57BL/6J mouse xenografted with […] MLL-AF9 cells assessed as Hb level at 5 mg/kg measured after 2 weeks (reference value: 13.4 +/- 0.5 g/dl). Type of series: organism-based. Conditions: in vivo, 336 h. On the technique in general: A xenograft is tissue or cells of one species grown in another, often human tumour cells in immunodeficient mice.

The target of series [8] is T3, Sphingosine kinase 1/2 (Homo sapiens). The series can be described thus: Inhibition of SPHK1/SPHK2 in human HL-60 cells assessed as induction of apoptosis by measuring spindle assembly checkpoint arrest at 1 uM after 16 hrs by Western blot analysis. The format is cell-based.
Series [9] can be described thus: Effect on hematopoiesis in sub-lethal irradiated C57BL/6J mouse xenografted with […] MLL-AF9 cells assessed as CD45.1+/CD34 cells in bone marrow at 5 mg/kg measured after 6 weeks by flow cytometry analysis (reference value: 93 %). The format is ADME, organism-based. Conditions: in vivo, 1008 h.
In a further series the test system is HL-60. The series can be described thus: Cytotoxicity against human HL-60 cells assessed as reduction in cell viability after 48 hrs by MTT assay. Type of series: functional, cell-based. Conditions: HL-60, 48 h.
Series [10] addresses T1, Sphingosine kinase 1. In words: Binding affinity to SphK1 in HEK293 cells assessed as induction of thermal stabilization at 1 uM and 51 to 63.2 degreeC by CETSA-based Western blot analysis. The format is cell-based.
The target in series [11] is T3, Sphingosine kinase 1/2 (Homo sapiens). In words: Inhibition of SPHK1/SPHK2 in human HL-60 cells assessed as sphingosine level assessed per 10^6 cells at 500 nM after 24 hrs by LC-ESI/MS analysis (reference value: 18.3 +/- 3.5 pmol). The format is cell-based.
For series [12], the target named is Cyclin-dependent kinase 1 (Homo sapiens) (UniProt P06493). The series can be described thus: Activation of CDK1 in human HL-60 cells assessed as activation of caspase 7 at 300 nM after 24 hrs by Western blot analysis. Type of series: cell-based. Conditions: filed as activator.
Cyclin-dependent kinase 1 (Homo sapiens), sequence (P06493 whole entry, looked up): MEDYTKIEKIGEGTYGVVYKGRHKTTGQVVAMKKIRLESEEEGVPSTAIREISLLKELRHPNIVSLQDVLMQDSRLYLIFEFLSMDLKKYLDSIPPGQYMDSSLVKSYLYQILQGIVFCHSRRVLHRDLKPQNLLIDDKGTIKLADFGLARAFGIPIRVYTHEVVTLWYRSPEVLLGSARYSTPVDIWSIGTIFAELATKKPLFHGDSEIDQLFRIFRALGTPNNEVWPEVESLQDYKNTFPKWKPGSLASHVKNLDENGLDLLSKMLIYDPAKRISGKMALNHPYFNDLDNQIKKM
For a further series, the target named is T4, Sphingosine kinase 2 (Homo sapiens, UniProt Q9NRA0).
T4 sequence (Q9NRA0 whole entry): T2 sequence (whole entry)
The series can be described thus: Binding affinity to SphK2 in HEK293 cells assessed as direct target engagement incubated for 24 hrs followed by thermal denaturation at 61 degreeC by ITDRF-CETSA assay. The format is cell-based.

For series [13], the target named is Cyclin-dependent kinase 1 (Homo sapiens) (UniProt P06493). In words: Activation of CDK1 in human HL-60 cells assessed as activation of caspase 7 at 300 nM after 24 hrs in presence of Ro-3306 by Western blot analysis. Type of series: cell-based.
Series [14] in a line: Effect on hematopoiesis in sub-lethal irradiated C57BL/6J mouse xenografted with […] MLL-AF9 cells assessed as CD45.1+/CD34 cells in spleen at 5 mg/kg measured after 6 weeks by flow cytometry analysis (reference value: 90 %). Type of series: ADME, organism-based. Conditions: in vivo, 1008 h.
The target of series [15] is Glycogen synthase kinase-3 alpha (Homo sapiens) (UniProt P49840). In words: Inhibition of wild type full length human GSK3A (M1 to S483 residues) expressed in bacterial expression assessed as residual activity at 1 uM by Kinomescan method relative to control.
Glycogen synthase kinase-3 alpha (Homo sapiens), sequence (P49840 2-483 limits assumed): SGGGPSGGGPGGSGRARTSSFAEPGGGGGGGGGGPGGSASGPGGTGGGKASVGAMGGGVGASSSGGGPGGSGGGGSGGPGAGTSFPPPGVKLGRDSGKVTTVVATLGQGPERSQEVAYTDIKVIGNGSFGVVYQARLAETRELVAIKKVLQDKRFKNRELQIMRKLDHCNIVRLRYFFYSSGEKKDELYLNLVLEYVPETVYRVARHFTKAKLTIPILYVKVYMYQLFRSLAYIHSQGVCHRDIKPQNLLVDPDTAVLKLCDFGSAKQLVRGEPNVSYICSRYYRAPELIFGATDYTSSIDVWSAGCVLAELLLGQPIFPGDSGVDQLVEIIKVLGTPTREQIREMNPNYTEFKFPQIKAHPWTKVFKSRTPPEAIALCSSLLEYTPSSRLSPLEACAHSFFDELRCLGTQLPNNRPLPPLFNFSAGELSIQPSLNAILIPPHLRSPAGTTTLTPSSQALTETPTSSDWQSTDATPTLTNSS
Series [16] can be described thus: Toxicity in sub-lethal irradiated C57BL/6J mouse xenografted with […] MLL-AF9 cells assessed as WBC level at 1 mg/kg measured after 2 weeks (reference value: 6.5 +/- 0.4 10^3/ml). Conditions: in vivo, 336 h. The format is organism-based.
The target in series [17] is Cyclin-dependent kinase 1 (Homo sapiens) (UniProt P06493). In words: Activation of CDK1 in human HL60/VCR cells assessed as activation of caspase 7 at 300 nM after 24 hrs in presence of Ro-3306 by Western blot analysis. Type of series: cell-based.
Series [18] shares this target. The series can be described thus: Activation of CDK1 in human HL60/VCR cells assessed as activation of caspase 7 at 300 nM after 24 hrs by Western blot analysis. Type of series: cell-based. As to conditions: filed as activator.
A further series deals with Tubulin (Homo sapiens) (UniProt P68371+Q9H4B7+P0DPH7+P68366+Q13509+Q71U36+P04350+Q3ZCM7+P07437+P68363+Q9BQE3+Q6PEY2+Q13885+Q9BVA1+Q9BUF5). In words: Inhibition of tubulin polymerization in human MOLM-13 cells assessed as disruption of microtubule network at 500 nM after 18 hrs by FITC-staining based flow cytometry analysis. The format is cell-based. Background: In flow cytometry, cells or beads pass a laser one at a time.

The nature of series [19]: Toxicity in sub-lethal irradiated C57BL/6J mouse xenografted with […] MLL-AF9 cells assessed as platelet level at 5 mg/kg measured after 2 weeks (reference value: 687 +/- 53 10^3/ml). Type of series: organism-based. Conditions: in vivo, 336 h.
Series [20] addresses Cyclin-dependent kinase 1 (Homo sapiens) (UniProt P06493). The series can be described thus: Activation of CDK1 in human HL60/VCR cells assessed as induction of Bcl2 phosphorylation at Ser70 residue at 300 nM after 24 hrs by Western blot analysis. The format is cell-based. As to conditions: filed as activator.

T1 sequence (Q9NYA1 whole entry): as the sequence (Q9NYA1 whole entry, looked up, one chain of several) above

Turning to `COc1ccc(Nc2nc(N)c(C(=O)c3ccc(OC)c(OC)c3)s2)cc1`, the IC50 worked out at 30 µM on Sphingosine kinase 1 [1], 0.022 µM in the series with HL-60 and 0.06 µM at Sphingosine kinase 2. For the same compound, the Activity is 7% in series [2]; 5.4% in [5]; 87 pmol in series [6]; 12 g/dL in series [7]; 7% in [9]; 27 pmol in series [11]. The Activity is 7% in [14], 2.5% in [15], 8.7 10^3/ml in [16] and 1089 10^3/ml in series [19]. The result in [3], in series [13] and in series [17] was inactive. For the same compound, the result (in series [4]; in series [8]; at Sphingosine kinase 1 [10]; in series [12]; in [18]; in series [20]) was Active. Besides, the inhibition result on Tubulin (Homo sapiens) was “Active”.

The term IC50 denotes the concentration that gives 50% inhibition.

These data come from ChEMBL document CHEMBL4665719, “Development of SKI-349, a dual-targeted inhibitor of sphingosine kinase and microtubule polymerization” (Bioorg Med Chem Lett, 2020).
